Values joined by “and” are separate entries in the source; they are usually repeats but may differ in a detail not shown here. Equal values may be shown once.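 Briefly, cells in 96-well plates were exposed to five compound concentrations for 48 h, and endpoints were estimated by linear interpolation. GI50 marks 50% less growth. The concentration for full growth arrest is given as TGI.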
Assays:
Assay in all cases: DTP human tumour cell line panel, 48 h
A549 NSCLC = test system: A549 NSCLC
SNB-19 CNS = test system: SNB-19 CNS
UACC-257 melanoma = test system: UACC-257 melanoma
RXF 393 renal = test system: RXF 393 renal
K-562 leukemia = test system: K-562 leukemia
OVCAR-8 ovarian = test system: OVCAR-8 ovarian
SK-MEL-5 melanoma = test system: SK-MEL-5 melanoma
ACHN renal = test system: ACHN renal
HL-60(TB) leukemia = test system: HL-60(TB) leukemia
MALME-3M melanoma = test system: MALME-3M melanoma

SMILES	TGI (A549 NSCLC) [µM]	TGI (SNB-19 CNS) [µM]	TGI (UACC-257 melanoma) [µM]	TGI (RXF 393 renal) [µM]	TGI (K-562 leukemia) [µM]	TGI (OVCAR-8 ovarian) [µM]	TGI (SK-MEL-5 melanoma) [µM]	TGI (ACHN renal) [µM]	TGI (HL-60(TB) leukemia)	TGI (MALME-3M melanoma) [µM]	GI50 (UACC-257 melanoma) [µM]	GI50 (RXF 393 renal) [µM]	GI50 (K-562 leukemia) [µM]	GI50 (OVCAR-8 ovarian) [µM]	GI50 (HL-60(TB) leukemia) [µM]	GI50 (SNB-19 CNS) [µM]	GI50 (ACHN renal) [µM]	GI50 (A549 NSCLC) [µM]	GI50 (SK-MEL-5 melanoma) [µM]
Cc1cc(Cc2cc(C)c(N)cc2N)c(N)cc1N	> 100	> 100	> 100	> 100	> 100	> 100	> 100	> 100	> 100 µM										
CCOC(=O)/C=C/CC(C)(C)CCOC(C)=O	> 10	> 10	> 10	> 10	> 10	> 10	> 10	> 10	> 10 µM										
Cc1n[nH]c(=O)n1/N=C/c1ccc(Cl)cc1	> 100	> 100	> 100	72.3	> 100	> 100		> 100											
COC(=O)c1ccccc1CC1Cc2ccc3c(c2C1=O)CCCC3 (centres undefined)	> 100	> 100	> 100		> 100	> 100	34.8	> 100	> 100 µM	> 82.5									
O=C(CCN1CCCCC1)C(=Cc1ccccc1)C(=O)CCN1CCCCC1	> 100	> 100	> 100	34.3	> 55.2	> 58.1	> 100		6.05 µM and 48 µM		87.4	16.9	3.46	2.56	2.2				
CCCCCCCCCCCCCCNC(=O)CCC(NC(=O)c1ccc(N(C)Cc2cnc3nc(N)nc(N)c3n2)cc1)C(=O)NCCCCCCCCCCCCCC (centres undefined)	> 36.3	> 61.4	35.4	34.2	> 100	39.8	> 81.7	30.1	0.758 µM										
COc1ccc2c(c1)/C(=C/CCN(C)C)c1ccccc1S2	> 100	> 100	> 100	> 100	> 100	> 100	31.7	> 100	> 100 µM										
O=c1c2cc([N+](=O)[O-])cnc2sn1-c1ccc([N+](=O)[O-])cc1	> 100	> 100	> 100			> 100	> 100	> 100	64.2 µM	53									
O=c1[nH]c(Nc2cccc(CC(F)(F)F)c2)nc2nc[nH]c12	> 100	> 100	> 100			> 100	> 100	> 100	> 100 µM	> 100									
C[C@@H]1CC[C@]2(C(=O)O)CC[C@]3(C)C(=CC[C@@H]4[C@@]5(C)CC[C@H](O)C(C)(C)[C@@H]5CC[C@]43C)[C@@H]2[C@]1(C)O	33.3	29.7	19.8		19.6	37.3		30.4	19.8 µM	25.7									
CCOC(=O)C(SCCO)C(C(=O)OCC)n1cnc2c(=O)[nH]c(NC(C)=O)nc21 (centres undefined)	> 100	> 100	> 100		> 100	> 100	> 100	> 100	> 100 µM	> 100									
N#CC1(C#N)N[C@@H](c2ccsc2)[C@H]2C(=O)N(c3ccccc3)C(=O)[C@H]21	> 100		> 100	> 100	> 100	> 100	> 100	> 100	42 µM	> 100									
Cc1cn2c(/C=N/N=C(N)N)c(-c3cccc([N+](=O)[O-])c3)nc2s1	4.94		4.22	2.5		3.7	3.13	3.03	3.86 µM	3.94									
CC1(C)N=[N+]([O-])C1(C)C	> 100	> 100	> 100	> 100	> 100	> 100	> 100		> 100 µM	> 100									
C=C(C)C(=O)OC1C/C(CO)=C\C(O)C/C(C)=C/C2OC(=O)C(=C)C21 (centres undefined)	> 100	> 100			58.2	49.5	44.1	48.4		39									
C[C@@H](NC(=O)[C@@H]1C[C@]1(C)COC(=O)c1cc([N+](=O)[O-])cc([N+](=O)[O-])c1)c1cccc2ccccc12	> 100	> 100	> 100	> 100	> 100	> 100	> 100	> 100		51									
CCC(C(=O)O)c1ccc(OC)cc1 (centres undefined)	> 100	> 100	> 100	> 100	> 100		> 100	> 100	> 100 µM	> 100									
COc1ccc(C2CC(c3c(O)ccc4ccccc34)=NN2C(C)=O)cc1OC (centres undefined)	> 100		> 100	84.2	43.8	> 100	71.8	> 100		92.1									
O=C(N/N=C(/COc1ccc(Cl)cc1)N=Cc1ccncc1)c1ccncc1	> 100	> 100	> 100	> 100	> 100	> 100		> 100	> 100 µM	> 100									
COc1ccc(-c2cc(O)c3nc4ccccc4n3c2)cc1	> 100	> 100	> 100	> 100	> 100	> 100			> 100 µM	> 100									
COc1ccc(N/N=C2\CCOc3ccc(C)cc3C2=O)cc1	> 100	> 100	54.6		> 100	> 100	50.6	> 100	> 100 µM	38.7									
CC1(C)OC(=O)N(c2ccccc2)C12C=Cc1cc([N+](=O)[O-])cc([N+](=O)[O-])c1O2 (centres undefined)	> 100	> 100	> 100	> 100	> 100	> 100	> 100	> 100	> 100 µM										

SMILES	TGI (A549 NSCLC) [µM]	TGI (SNB-19 CNS) [µM]	TGI (UACC-257 melanoma) [µM]	TGI (RXF 393 renal) [µM]	TGI (K-562 leukemia) [µM]	TGI (OVCAR-8 ovarian) [µM]	TGI (SK-MEL-5 melanoma) [µM]	TGI (ACHN renal) [µM]	TGI (HL-60(TB) leukemia)	TGI (MALME-3M melanoma) [µM]	GI50 (UACC-257 melanoma) [µM]	GI50 (RXF 393 renal) [µM]	GI50 (K-562 leukemia) [µM]	GI50 (OVCAR-8 ovarian) [µM]	GI50 (HL-60(TB) leukemia) [µM]	GI50 (SNB-19 CNS) [µM]	GI50 (ACHN renal) [µM]	GI50 (A549 NSCLC) [µM]	GI50 (SK-MEL-5 melanoma) [µM]
CN1C(=O)C2CCC(=O)N2c2cccnc21 (centres undefined)	> 100	> 100	> 100		> 100	> 100	> 100	> 100	> 100 µM	> 100									
CCOC(=O)c1csc(NC(=O)CN2CCOCC2)n1	> 100	> 100	> 100	> 100	> 100	> 100	> 100	> 100	> 100 µM										
O=C1c2ccccc2-c2c1c1ccccc1c(=O)n2CCNCCNCCNCCn1c2c(c3ccccc3c1=O)C(=O)c1ccccc1-2		> 100						0.555					0.253		1.8	2.35	0.0536		
COc1ccc(-c2c(C#N)c(-c3ccc(C)cc3)n(NS(=O)(=O)c3ccc(C)cc3)c(=O)c2C#N)cc1	> 100	> 100	> 100	> 100	> 100	> 100	58.3	> 100		> 100									
CCOC(=O)CSc1c(C(=O)OCC)c(=O)n(-c2ccccc2)c(=S)n1-c1ccccc1	> 100	> 100	> 100		> 100	> 100	> 100	> 100	47.4 µM	> 100									
CC1CCC(n2c3cnccc3c3cnc(Nc4ccc5c(n4)CCN(C(=O)CO)C5)nc32)CC1 (centres undefined)	> 100	> 100	> 100				> 100	> 100			> 100					0.845	0.469	0.882	0.792
O=C1CSC(c2ccc(Cl)cc2)N1c1ccc(Oc2ccc(Cl)cc2)c(Cl)c1 (centres undefined)	34.5	30.2	33.2		> 100	35.4	32.4	31.2	39 µM	21.9									
COc1cc2nc3n(c(=O)c2cc1OC)-c1ccc([N+](=O)[O-])cc1C3=O	> 100	> 100	> 100	79.7	> 100	> 100	> 100	> 100		> 100									
COc1cccc(C(=O)O[C@H]2[C@@H]3[C@]4(OC(C)=O)CO[C@@H]4C[C@H](O)[C@@]3(C)C(=O)[C@H](OC(C)=O)C3=C(C)[C@@H](OC(=O)[C@H](O)[C@@H](NC(=O)OC(C)(C)C)c4ccco4)C[C@]2(O)C3(C)C)c1	> 37.5	> 30	> 37.5	> 9.16		> 14.4	> 15.7	> 37.5		> 37.5									
Cc1c(O)c(O)cc[n+]1C1OC(CO)C(O)C1O (centres undefined)	> 100	> 100	> 100	> 100	> 100	> 100		> 100		> 100									
C=CC1(C)CCC2C(=CCC3C2(C)CC(O)C(O)C3(C)COC2OC(C(=O)O)C(O)C(O)C2O)C1 (centres undefined) (tested in a mixture with another compound)	> 100	> 100	> 100	> 100	> 100	> 100	> 100	> 100		> 100									
O=C1CCCc2cc3c(cc21)CC1(Cc2ccccc2C1)C3	43.3		20.2	82.5	7.74	43.7	16.2	32.9	5.02 µM	70.1									
c1csc(-c2ccc(-c3cccc4nsnc34)s2)c1	> 100	> 100	> 100	> 100	> 100	> 100	> 100	> 100		> 100									
O=C1CCCSC(=O)N1Cc1ccccc1	> 100	> 100	> 100	> 100		> 100	> 100	> 100	> 100 µM	> 100									
O=C(NC(=O)c1ccccc1[N+](=O)[O-])Nc1ccc(Oc2ncc(Br)cn2)c(Cl)c1	> 100		0.0434	0.0321		0.0736		0.0688	0.0336 µM and 0.0807 µM	0.0537					0.0273	0.0693		< 0.0248	0.04
N#Cc1c(-c2ccccc2)/c(=C\Nc2cccc(C(F)(F)F)c2)c(=O)n2c1nc1ccccc12	> 100	> 100	> 100	78.1		51.5	> 100	> 100		> 100									
COCO[C@@H]1C[C@H]2C(=O)Nc3ccccc3C(=O)N2C1	> 100	> 100	> 100	41.7		> 100	> 100	> 100		> 100									
CC(C)CCS(=O)(=O)OCCCCOS(=O)(=O)CCC(C)C	> 100	> 100	> 100	> 100	> 100	> 100		> 100	> 100 µM	> 100									
c1ccc(-c2nc(-c3ccccc3SSc3ccccc3-c3nc(-c4ccccc4)nn3-c3ccccc3)n(-c3ccccc3)n2)cc1	> 100	> 100		> 100	> 100	> 100		> 100	> 100 µM	> 100									
[N-]=[N+]=NC[C@H]1OCO[C@H](CN=[N+]=[N-])[C@@H](OCCOCCCl)[C@@H]1OCCOCCCl	> 100	> 100	> 100	> 100	> 100	> 100	> 100		> 100 µM	> 100									
NC(=O)NCCCC(NC(=O)OCCCCn1ccc(=O)[nH]c1=O)C(=O)O (centres undefined)	> 100	> 100	> 100	> 100	> 100	> 100		> 100	> 100 µM										
COc1cc(C(=O)N(C(=S)OCc2ccccn2)c2ccccc2)cc(OC)c1OC		> 100	> 100	> 100	> 100	> 100	> 100	> 100	> 100 µM	62									

Source: PubChem BioAssay (NCI)
